Laboratory results published in patent US11787764B2, “Heptamethine cyanines for use as fluorescent markers of the biliary and renal systems” (CHILDREN'S NATIONAL MEDICAL CENTER, priority 2018, dated 2023).

Experiments:
Sprague-Dawley rats = conditions: rat, in vivo, iv, 90 ug/kg
[1] = Quantum yield measurement
Protocol: Fluorescence traces were recorded on a PTI QuantaMaster steady-state spectrofluorimeter operated by FelixGX 4.2.2 software, with 5 nm excitation and emission slit widths, 0.1 s integration rate, and enabled emission correction.

Compound | excretion into bile / biliary clearance (in words) (Sprague-Dawley rats) | quantum yield [1]
CN(CCOC1=C(/C=C/C2=[N+](CCCCS(=O)(=O)[O-])c3ccccc3C2(C)C)CCC/C1=C\C=C1\N(CCCCS(=O)(=O)O)c2ccccc2C1(C)C)C(=O)CCCC(=O)O [FNIR-Ar-H_N-BS] | excellent biliary clearance | 
CC1(C)C(/C=C/C=C/C=C/C=C2\N(CCCCS(=O)(=O)O)c3ccc4ccccc4c3C2(C)C)=[N+](CCCCS(=O)(=O)[O-])c2ccc3ccccc3c21 [ICG, indocyanine green] |  | 9%
CC1(C)C(=CC=C2CCCC(C=CC3=[N+](CCCCCC(=O)[O-])c4ccc(S(=O)(=O)[O-])cc4C3(C)C)=C2Oc2ccc(S(=O)(=O)[O-])cc2)N(CCCCS(=O)(=O)[O-])c2ccc(S(=O)(=O)[O-])cc21.[Na+].[Na+].[Na+].[Na+] [IRDye® 800CW] | excretes rapidly into bile | 
